Source: ChEMBL document CHEMBL5053512, “Discovery and Preclinical Pharmacology of an Oral Bromodomain and Extra-Terminal (BET) Inhibitor Using Scaffold-Hopping and Structure-Guided Drug Design” (J Med Chem, 2021)

Key:
[1] = Antitumour activity against patient-derived human PAT138 cells xenografted in mouse model at 1.6 mg/kg, po bid, 5 days on and 2 days off for 2 weeks; assay type: functional; conditions: PAT138, 120 h, time 5 day, read-out: TGI
[2] = Antitumour activity against human LG0787F cells xenografted in po dosed NSG mouse assessed as minimum effective concentration; assay type: functional; conditions: dose 0.25 mg/kg/day
[3] = Oral bioavailability in dog at 5 mg/kg; assay type: ADME, organism-based, Canis lupus familiaris; conditions: in vivo
[4] = Drug concentration at steady state in human LG0787F cells xenografted in NSG mouse at 0.5 mg/kg/day infused continuously over 6 days using Alzet pump; assay type: ADME, organism-based; conditions: in vivo, 144 h, time 6 day
[5] = Elimination half life in rat at 1 mg/kg, iv; assay type: ADME, organism-based; conditions: in vivo, read-out: beta t1/2 (converted)
[6] = AUC in human LG0787F cells xenografted in NSG mouse at 1 mg/kg/day, po qd; assay type: ADME, organism-based; parameters: dose 1 mg/kg/day, route po; conditions: in vivo
[7] = Metabolic stability in human liver microsomes assessed as parent compound remaining at 0.5 uM after 10 mins; assay type: ADME, Microsome; conditions: read-out: Stability
[8] = Cmax in human LG0787F cells xenografted in NSG mouse at 1 mg/kg/day, po bid; assay type: ADME, organism-based; parameters: dose 1 mg/kg/day, route po; conditions: in vivo
NCI-H1623 = test: Anticancer activity against human NCI-H1623 cells; assay type: functional, cell-based
NCI-H1048 = test: Anticancer activity against human NCI-H1048 cells; assay type: functional, cell-based
[9] = Antitumour activity against patient-derived human PAT78 cells xenografted in mouse model at 1.6 mg/kg, po bid, 5 days on and 2 days off for 2 weeks; assay type: functional; conditions: PAT78, 120 h, time 5 day, read-out: TGI
DMS-53 = test: Anticancer activity against human DMS-53 cells; assay type: functional, cell-based
[10] = Permeability coefficient across basolateral to apical side in human Caco-2 cells; assay type: ADME, cell-based; conditions: read-out: permeability
[11] = AUC in human LG0787F cells xenografted in NSG mouse at 0.25 mg/kg/day, po bid; assay type: ADME, organism-based; parameters: dose 0.25 mg/kg/day, route po; conditions: in vivo
NCI-H2170 = test: Anticancer activity against human NCI-H2170 cells; assay type: functional, cell-based
Cytochrome P450 2C9 = Cytochrome P450 2C9 (Homo sapiens, UniProt P11712); test: Inhibition of CYP2C9 (unknown origin); assay type: ADME
SK-LU-1 = test: Anticancer activity against human SK-LU-1 cells; assay type: functional, cell-based
[12] = Cmax in mouse at 30 mg/kg, po; assay type: ADME, organism-based; parameters: dose 30 mg/kg, route po; conditions: in vivo
[13] = Antitumour activity against patient-derived human PAT121 cells xenografted in mouse model at 1.6 mg/kg, po bid, 5 days on and 2 days off for 2 weeks; assay type: functional; conditions: PAT121, 120 h, time 5 day, read-out: TGI
[14] = Antitumour activity against patient-derived human PAT140 cells xenografted in mouse model at 1.6 mg/kg, po bid, 5 days on and 2 days off for 2 weeks; assay type: functional; conditions: PAT140, 120 h, time 5 day, read-out: TGI
[15] = Elimination half life in mouse at 1.75 mg/kg, iv; assay type: ADME, organism-based; conditions: in vivo, read-out: beta t1/2 (converted)
[16] = Volume of distribution at steady state in rat at 1 mg/kg, iv; assay type: ADME, organism-based; conditions: in vivo, read-out: Vdss
[17] = Elimination half life in dog at 0.1 mg/kg, iv; assay type: ADME, organism-based, Canis lupus familiaris; conditions: in vivo, read-out: beta t1/2 (converted)
[18] = Volume of distribution at steady state in dog at 0.1 mg/kg, iv; assay type: ADME, organism-based, Canis lupus familiaris; conditions: in vivo, read-out: Vdss
[19] = molecular target: Histone acetyltransferase p300 (Homo sapiens) (UniProt Q09472)
Description: Binding affinity to EP300 (unknown origin) assessed as change in melting temperature of protein

HCC95 = test: Anticancer activity against human HCC95 cells; assay type: functional, cell-based
Cytochrome P450 2C19 = Cytochrome P450 2C19 (Homo sapiens, UniProt P33261); test: Inhibition of CYP2C19 (unknown origin); assay type: ADME
NCI-H2030 = test: Anticancer activity against human NCI-H2030 cells; assay type: functional, cell-based
[20] = Elimination half life in monkey at 0.1 mg/kg, iv; assay type: ADME, organism-based, Macaca mulatta; conditions: rhesus monkey, in vivo, read-out: beta t1/2 (converted)
NCI-H2009 = test: Anticancer activity against human NCI-H2009 cells; assay type: functional, cell-based
[21] = AUC in human LG0787F cells xenografted in NSG mouse at 1 mg/kg/day, po bid; assay type: ADME, organism-based; parameters: dose 1 mg/kg/day, route po; conditions: in vivo
[22] = Antitumour activity against human LG0787F cells xenografted in NSG mouse assessed as tumour growth inhibition at 0.25 mg/kg/day, po bid; assay type: functional; conditions: read-out: TGI
[23] = Antitumour activity against human LG0787F cells xenografted in po dosed NSG mouse assessed as minimum effective concentration measured after 12 hrs; assay type: functional; conditions: dose 0.25 mg/kg/day
[24] = Antitumour activity against patient-derived human LGO52.0F/Cis/R48 cells xenografted in mouse model at 1.6 mg/kg, po bid, 5 days on and 2 days off for 2 weeks; assay type: functional; conditions: LGO52.0F/Cis/R48, 120 h, time 5 day, read-out: TGI
[25] = Total plasma clearance in mouse at 1.75 mg/kg, iv; assay type: ADME, organism-based
[26] = Antitumour activity against patient-derived human PAT81 cells xenografted in mouse model at 1.6 mg/kg, po bid, 5 days on and 2 days off for 2 weeks; assay type: functional; conditions: PAT81, 120 h, time 5 day, read-out: TGI
[27] = Antitumour activity against patient-derived human PAT130 cells xenografted in mouse model at 1.6 mg/kg, po bid, 5 days on and 2 days off for 2 weeks; assay type: functional; conditions: PAT130, 120 h, time 5 day, read-out: TGI
[28] = Oral bioavailability in monkey at 5 mg/kg; assay type: ADME, organism-based, Macaca mulatta; conditions: rhesus monkey, in vivo
[29] = Antitumour activity against patient-derived human LG0787F cells xenografted in mouse model at 1.6 mg/kg, po bid, 5 days on and 2 days off for 2 weeks; assay type: functional; conditions: 120 h, time 5 day, read-out: TGI
[30] = molecular target: Bromodomain-containing protein 3 (Homo sapiens, UniProt Q15059); test: Inhibition of human BRD3 measured by TR-FRET assay
NCI-H211 = test: Anticancer activity against human NCI-H211 cells; assay type: functional, cell-based
[31] = Total plasma clearance in monkey at 0.1 mg/kg, iv; assay type: ADME, organism-based, Macaca mulatta; conditions: rhesus monkey
[32] = Antitumour activity against patient-derived human BR1367F cells xenografted in mouse model at 1.6 mg/kg, po bid, 5 days on and 2 days off for 2 weeks; assay type: functional; conditions: 120 h, time 5 day, read-out: TGI
A549 = test: Anticancer activity against human A549 cells; assay type: functional, cell-based
SK-MES-1 = test: Anticancer activity against human SK-MES-1 cells; assay type: functional, cell-based
NCI-H23 = test: Anticancer activity against human NCI-H23 cells; assay type: functional, cell-based
[33] = Antitumour activity against patient-derived human PAT157 cells xenografted in mouse model at 1.6 mg/kg, po bid, 5 days on and 2 days off for 2 weeks; assay type: functional; conditions: PAT157, 120 h, time 5 day, read-out: TGI
[34] = Total plasma clearance in dog at 0.1 mg/kg, iv; assay type: ADME, organism-based, Canis lupus familiaris
NCI-H520 = test: Anticancer activity against human NCI-H520 cells; assay type: functional, cell-based
[35] = Drug concentration at steady state in human LG0787F cells xenografted in NSG mouse infused continuously over 6 days using Alzet pump; assay type: ADME; conditions: iv, 144 h, time 6 day

Chain of Cytochrome P450 2C19 (P33261 whole entry): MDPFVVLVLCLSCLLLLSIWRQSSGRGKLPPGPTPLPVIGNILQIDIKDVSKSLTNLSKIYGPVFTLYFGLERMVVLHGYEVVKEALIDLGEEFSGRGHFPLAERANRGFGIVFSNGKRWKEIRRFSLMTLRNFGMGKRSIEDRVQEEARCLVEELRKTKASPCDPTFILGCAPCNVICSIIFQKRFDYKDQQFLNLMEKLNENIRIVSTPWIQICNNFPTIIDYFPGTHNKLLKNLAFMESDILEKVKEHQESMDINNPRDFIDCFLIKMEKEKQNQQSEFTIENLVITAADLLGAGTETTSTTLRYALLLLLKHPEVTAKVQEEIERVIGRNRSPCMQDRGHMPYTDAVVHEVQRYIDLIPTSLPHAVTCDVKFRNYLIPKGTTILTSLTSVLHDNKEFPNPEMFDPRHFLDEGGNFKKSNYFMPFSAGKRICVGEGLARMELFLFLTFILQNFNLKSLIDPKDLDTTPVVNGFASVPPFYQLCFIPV
Chain of Histone acetyltransferase p300 (Homo sapiens) (Q09472 whole entry): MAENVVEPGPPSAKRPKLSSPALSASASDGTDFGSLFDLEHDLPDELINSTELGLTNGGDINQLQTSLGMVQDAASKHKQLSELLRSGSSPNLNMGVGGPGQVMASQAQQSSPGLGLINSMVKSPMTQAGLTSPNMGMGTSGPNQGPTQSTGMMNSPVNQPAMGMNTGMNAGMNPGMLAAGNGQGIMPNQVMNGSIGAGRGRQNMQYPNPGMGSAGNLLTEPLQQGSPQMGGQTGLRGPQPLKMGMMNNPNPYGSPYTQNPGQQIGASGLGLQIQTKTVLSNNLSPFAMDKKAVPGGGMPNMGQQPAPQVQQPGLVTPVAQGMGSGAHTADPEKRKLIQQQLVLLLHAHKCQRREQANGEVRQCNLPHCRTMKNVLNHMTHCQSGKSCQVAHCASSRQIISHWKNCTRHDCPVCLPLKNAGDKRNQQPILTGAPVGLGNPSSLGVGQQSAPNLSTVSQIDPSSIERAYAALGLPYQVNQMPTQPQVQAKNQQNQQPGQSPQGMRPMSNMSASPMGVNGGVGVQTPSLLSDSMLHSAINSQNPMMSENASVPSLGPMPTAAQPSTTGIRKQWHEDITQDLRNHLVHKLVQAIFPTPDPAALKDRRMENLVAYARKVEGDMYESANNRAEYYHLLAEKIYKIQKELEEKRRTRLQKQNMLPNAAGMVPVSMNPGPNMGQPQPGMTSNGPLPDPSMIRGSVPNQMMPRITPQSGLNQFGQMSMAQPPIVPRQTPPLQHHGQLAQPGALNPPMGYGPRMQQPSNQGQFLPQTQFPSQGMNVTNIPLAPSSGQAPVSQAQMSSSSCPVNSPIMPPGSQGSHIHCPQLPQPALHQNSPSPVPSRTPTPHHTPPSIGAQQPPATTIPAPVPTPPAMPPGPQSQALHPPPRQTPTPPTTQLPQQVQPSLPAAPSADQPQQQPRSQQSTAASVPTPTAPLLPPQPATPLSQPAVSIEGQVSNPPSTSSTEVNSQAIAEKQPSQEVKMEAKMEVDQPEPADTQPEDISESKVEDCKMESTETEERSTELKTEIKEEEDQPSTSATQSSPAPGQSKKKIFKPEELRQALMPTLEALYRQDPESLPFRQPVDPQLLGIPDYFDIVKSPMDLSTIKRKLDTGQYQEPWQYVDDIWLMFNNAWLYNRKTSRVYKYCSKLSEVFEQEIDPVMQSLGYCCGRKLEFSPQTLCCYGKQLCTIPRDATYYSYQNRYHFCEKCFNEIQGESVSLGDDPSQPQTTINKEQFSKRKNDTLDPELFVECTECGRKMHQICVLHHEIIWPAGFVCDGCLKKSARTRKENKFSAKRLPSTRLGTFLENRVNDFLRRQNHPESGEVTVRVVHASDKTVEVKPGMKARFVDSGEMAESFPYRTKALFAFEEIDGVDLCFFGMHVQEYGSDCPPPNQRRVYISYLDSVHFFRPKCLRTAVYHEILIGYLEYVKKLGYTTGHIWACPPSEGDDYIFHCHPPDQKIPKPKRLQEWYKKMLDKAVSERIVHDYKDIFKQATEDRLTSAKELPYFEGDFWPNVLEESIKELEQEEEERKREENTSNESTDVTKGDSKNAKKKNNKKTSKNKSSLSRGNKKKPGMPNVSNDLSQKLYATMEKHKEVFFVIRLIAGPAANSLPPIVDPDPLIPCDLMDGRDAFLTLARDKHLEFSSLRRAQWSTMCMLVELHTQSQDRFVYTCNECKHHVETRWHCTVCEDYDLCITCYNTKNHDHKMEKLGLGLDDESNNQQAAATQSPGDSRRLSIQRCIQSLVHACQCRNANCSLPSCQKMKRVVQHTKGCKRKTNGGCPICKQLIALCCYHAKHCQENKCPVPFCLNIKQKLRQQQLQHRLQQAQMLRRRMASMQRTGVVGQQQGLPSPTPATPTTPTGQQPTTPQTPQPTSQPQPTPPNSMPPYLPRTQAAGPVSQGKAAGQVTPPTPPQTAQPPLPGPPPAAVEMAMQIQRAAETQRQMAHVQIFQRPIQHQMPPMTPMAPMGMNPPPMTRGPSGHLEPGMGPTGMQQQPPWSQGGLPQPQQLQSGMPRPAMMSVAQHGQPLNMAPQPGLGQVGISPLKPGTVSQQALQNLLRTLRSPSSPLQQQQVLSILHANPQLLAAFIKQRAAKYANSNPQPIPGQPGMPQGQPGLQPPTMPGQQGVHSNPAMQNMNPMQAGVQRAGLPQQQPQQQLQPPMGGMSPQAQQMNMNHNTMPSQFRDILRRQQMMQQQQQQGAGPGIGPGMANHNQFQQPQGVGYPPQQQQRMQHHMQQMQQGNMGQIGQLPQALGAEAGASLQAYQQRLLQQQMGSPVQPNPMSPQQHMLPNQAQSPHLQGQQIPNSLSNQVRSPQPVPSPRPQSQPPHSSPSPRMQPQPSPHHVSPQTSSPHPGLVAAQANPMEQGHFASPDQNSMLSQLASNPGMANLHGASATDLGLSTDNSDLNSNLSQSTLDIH
Chain of Bromodomain-containing protein 3 (Q15059 whole entry): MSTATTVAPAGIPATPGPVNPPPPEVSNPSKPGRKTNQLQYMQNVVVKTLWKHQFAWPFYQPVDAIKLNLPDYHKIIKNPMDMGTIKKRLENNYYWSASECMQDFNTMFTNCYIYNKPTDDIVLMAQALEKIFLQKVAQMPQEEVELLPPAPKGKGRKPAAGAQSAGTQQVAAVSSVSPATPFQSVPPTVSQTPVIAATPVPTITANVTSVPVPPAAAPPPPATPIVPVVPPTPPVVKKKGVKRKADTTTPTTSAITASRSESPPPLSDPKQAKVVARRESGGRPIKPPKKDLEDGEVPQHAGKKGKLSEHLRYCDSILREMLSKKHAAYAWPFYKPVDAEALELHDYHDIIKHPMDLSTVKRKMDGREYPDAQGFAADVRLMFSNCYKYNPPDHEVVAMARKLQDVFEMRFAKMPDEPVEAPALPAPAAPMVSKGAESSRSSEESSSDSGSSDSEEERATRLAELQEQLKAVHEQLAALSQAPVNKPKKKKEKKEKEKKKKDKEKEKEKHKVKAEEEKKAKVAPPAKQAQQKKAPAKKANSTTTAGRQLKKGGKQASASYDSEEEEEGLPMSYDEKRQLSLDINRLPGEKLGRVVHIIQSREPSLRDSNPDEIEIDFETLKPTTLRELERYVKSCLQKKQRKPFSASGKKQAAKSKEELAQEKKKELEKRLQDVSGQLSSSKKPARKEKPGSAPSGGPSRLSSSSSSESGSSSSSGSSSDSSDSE
Chain of Cytochrome P450 2C9 (P11712 whole entry): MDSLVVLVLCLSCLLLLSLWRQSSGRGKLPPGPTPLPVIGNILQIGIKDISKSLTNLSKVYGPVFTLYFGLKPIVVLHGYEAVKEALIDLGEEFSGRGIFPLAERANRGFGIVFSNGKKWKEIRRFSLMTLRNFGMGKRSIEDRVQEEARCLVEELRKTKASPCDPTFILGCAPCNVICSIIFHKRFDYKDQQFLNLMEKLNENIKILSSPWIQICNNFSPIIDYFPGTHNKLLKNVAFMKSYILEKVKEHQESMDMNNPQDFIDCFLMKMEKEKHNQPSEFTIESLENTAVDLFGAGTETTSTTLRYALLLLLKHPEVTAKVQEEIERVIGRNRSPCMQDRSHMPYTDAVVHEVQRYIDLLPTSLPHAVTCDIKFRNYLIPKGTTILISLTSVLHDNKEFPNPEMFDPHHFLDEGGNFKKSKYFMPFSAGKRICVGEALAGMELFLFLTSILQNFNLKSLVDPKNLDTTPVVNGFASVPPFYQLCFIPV

bioavailability [3]: 59% | Css [4]: 10 nM | half-life [5]: 252 min | AUC [6]: 0.6 µM·h | remaining at 10 min, 0.5 µM [7]: 82% | Cmax [8]: 40 nM | IC50 (NCI-H1623): > 500 nM | IC50 (NCI-H1048): > 500 nM | IC50 (DMS-53): 0.29 nM | Papp B→A [10]: 34.7 ×10⁻⁶ cm/s | AUC [11]: 0.3 µM·h | IC50 (NCI-H2170): 91 nM | IC50 (Cytochrome P450 2C9): 11.8 µM | IC50 (SK-LU-1): 210 nM | Cmax [12]: 11.9 µM | half-life [15]: 108 min | Vd [16]: 4.3 L/kg | half-life [17]: 336 min | Vd [18]: 5.3 L/kg | ΔTm [19]: 9.5 °C | IC50 (HCC95): 8.1 nM | IC50 (Cytochrome P450 2C19): 5.6 µM | IC50 (NCI-H2030): > 500 nM | half-life [20]: 120 min | IC50 (NCI-H2009): > 500 nM | AUC [21]: 0.47 µM·h | clearance [25]: 12 mL/min/kg | bioavailability [28]: 16% | IC50 [30]: 1.1 nM | IC50 (NCI-H211): 0.3 nM | clearance [31]: 32 mL/min/kg | IC50 (A549): > 500 nM | IC50 (SK-MES-1): > 500 nM | IC50 (NCI-H23): 62 nM | clearance [34]: 15 mL/min/kg | IC50 (NCI-H520): > 500 nM | Css [35]: 17 nM
SMILES: Cc1nnn(C)c1-c1cnc2c3ccc(C(C)(C)O)cc3n([C@H](c3ccccc3)C3CCOCC3)c2c1 [EZOBRESIB]
inhibition in vivo at 1.6 mg/kg [1]: 75% | MEC [2]: 0.03 µM | inhibition in vivo at 1.6 mg/kg [9]: 47% | inhibition in vivo at 1.6 mg/kg [13]: 85% | inhibition in vivo at 1.6 mg/kg [14]: 59% | inhibition in vivo at 0.25 mg/kg/day [22]: 46% | MEC [23]: 10 nM | inhibition in vivo at 1.6 mg/kg [24]: 50% | inhibition in vivo at 1.6 mg/kg [26]: 112% | inhibition in vivo at 1.6 mg/kg [27]: 76% | inhibition in vivo at 1.6 mg/kg [29]: 110% | inhibition in vivo at 1.6 mg/kg [32]: 68% | inhibition in vivo at 1.6 mg/kg [33]: 23%
